Measured values taken from ChEMBL document CHEMBL1159093, “Discovery and optimization of RO-85, a novel drug-like, potent, and selective P2X3 receptor antagonist” (Bioorg Med Chem Lett, 2010).

Tests used:
[1] = target: Beta-2 adrenergic receptor (Homo sapiens) (UniProt P07550); assay: Displacement of [3H](-)CGP 12177 from human recombinant beta2 adrenergic receptor expressed in CHO cells at 10 uM after 120 mins by scintillation counting; type: cell-based
[2] = target: Cannabinoid receptor 1 (Homo sapiens) (UniProt P21554); assay: Displacement of [3H]CP-55940 from human recombinant CB1 receptor expressed in CHO cells at 10 uM after 120 mins by scintillation counting; type: cell-based
Cannabinoid receptor 1 (Homo sapiens), sequence (P21554 whole entry): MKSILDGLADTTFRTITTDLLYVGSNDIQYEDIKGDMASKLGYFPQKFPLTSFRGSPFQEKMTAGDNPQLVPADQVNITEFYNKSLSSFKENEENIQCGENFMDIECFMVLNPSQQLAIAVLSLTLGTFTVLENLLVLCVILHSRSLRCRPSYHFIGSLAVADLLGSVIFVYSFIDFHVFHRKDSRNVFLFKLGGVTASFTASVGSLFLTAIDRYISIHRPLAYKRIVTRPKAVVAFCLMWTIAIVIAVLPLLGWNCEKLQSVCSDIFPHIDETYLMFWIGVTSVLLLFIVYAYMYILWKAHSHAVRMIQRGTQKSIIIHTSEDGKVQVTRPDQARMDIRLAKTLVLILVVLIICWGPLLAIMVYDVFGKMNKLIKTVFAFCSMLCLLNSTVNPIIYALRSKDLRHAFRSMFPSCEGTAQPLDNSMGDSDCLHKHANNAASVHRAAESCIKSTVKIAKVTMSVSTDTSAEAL

[3] = target: D(2) dopamine receptor (Homo sapiens) (UniProt P14416); assay: Displacement of [3H]methyl-spiperone from human recombinant D2S receptor expressed in HEK293 cells at 10 uM after 60 mins by scintillation counting; type: cell-based
Rattus norvegicus [4] = organism: Rattus norvegicus; assay: Displacement of [3H]GABA from GABA receptor in rat cerebral cortex at 10 uM after 60 mins by scintillation counting; type: tissue-based
Rattus norvegicus [5] = organism: Rattus norvegicus; assay: Displacement of [3H]TCP from PCP receptor in rat cerebral cortex at 10 uM after 120 mins by scintillation counting; type: tissue-based
[6] = target: Histamine H2 receptor (Homo sapiens) (UniProt P25021); assay: Displacement of [125I]APT from human recombinant histamine H2 receptor expressed in CHO cells at 10 uM after 120 mins by scintillation counting; type: cell-based
[7] = target: Melatonin receptor type 1A (Homo sapiens) (UniProt P48039); assay: Displacement of [125I]2-iodomelatonin from human recombinant MT1 receptor expressed in CHO cells at 10 uM after 60 mins by scintillation counting; type: cell-based
Melatonin receptor type 1A (Homo sapiens), sequence (P48039 whole entry): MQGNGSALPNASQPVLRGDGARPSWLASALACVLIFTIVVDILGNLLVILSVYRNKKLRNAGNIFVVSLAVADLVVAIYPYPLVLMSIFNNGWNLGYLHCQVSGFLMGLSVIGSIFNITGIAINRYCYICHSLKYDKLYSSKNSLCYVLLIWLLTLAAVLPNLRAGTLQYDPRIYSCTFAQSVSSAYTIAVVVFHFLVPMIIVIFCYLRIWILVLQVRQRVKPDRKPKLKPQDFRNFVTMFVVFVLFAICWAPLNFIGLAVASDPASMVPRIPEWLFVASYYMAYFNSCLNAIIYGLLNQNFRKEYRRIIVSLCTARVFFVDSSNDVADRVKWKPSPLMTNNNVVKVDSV

[8] = target: Muscarinic acetylcholine receptor M1 (Homo sapiens) (UniProt P11229); assay: Displacement of [3H]pirenzepine from human recombinant muscarinic M1 receptor expressed in CHO cells at 10 uM after 60 mins by scintillation counting; type: cell-based
Muscarinic acetylcholine receptor M1 (Homo sapiens), sequence (P11229 whole entry): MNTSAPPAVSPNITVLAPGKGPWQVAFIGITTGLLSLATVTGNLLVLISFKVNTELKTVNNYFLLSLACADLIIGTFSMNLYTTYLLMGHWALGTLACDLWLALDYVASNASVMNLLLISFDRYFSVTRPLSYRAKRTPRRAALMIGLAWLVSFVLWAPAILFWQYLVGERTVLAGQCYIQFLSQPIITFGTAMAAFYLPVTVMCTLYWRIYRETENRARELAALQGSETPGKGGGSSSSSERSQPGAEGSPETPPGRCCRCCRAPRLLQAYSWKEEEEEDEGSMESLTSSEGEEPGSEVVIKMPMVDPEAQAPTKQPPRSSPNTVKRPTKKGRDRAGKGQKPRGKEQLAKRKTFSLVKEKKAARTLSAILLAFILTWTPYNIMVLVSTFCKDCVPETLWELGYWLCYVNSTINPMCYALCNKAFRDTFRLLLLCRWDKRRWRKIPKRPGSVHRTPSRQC

[9] = target: Muscarinic acetylcholine receptor M3 (Homo sapiens) (UniProt P20309); assay: Displacement of [3H]4-DAMP from human recombinant muscarinic M3 receptor expressed in CHO cells at 10 uM after 60 mins by scintillation counting; type: cell-based
[10] = target: Muscarinic acetylcholine receptor M4 (Homo sapiens) (UniProt P08173); assay: Displacement of [3H]4-DAMP from human recombinant muscarinic M4 receptor expressed in CHO cells at 10 uM after 60 mins by scintillation counting; type: cell-based
Muscarinic acetylcholine receptor M4 (Homo sapiens), sequence (P08173 whole entry): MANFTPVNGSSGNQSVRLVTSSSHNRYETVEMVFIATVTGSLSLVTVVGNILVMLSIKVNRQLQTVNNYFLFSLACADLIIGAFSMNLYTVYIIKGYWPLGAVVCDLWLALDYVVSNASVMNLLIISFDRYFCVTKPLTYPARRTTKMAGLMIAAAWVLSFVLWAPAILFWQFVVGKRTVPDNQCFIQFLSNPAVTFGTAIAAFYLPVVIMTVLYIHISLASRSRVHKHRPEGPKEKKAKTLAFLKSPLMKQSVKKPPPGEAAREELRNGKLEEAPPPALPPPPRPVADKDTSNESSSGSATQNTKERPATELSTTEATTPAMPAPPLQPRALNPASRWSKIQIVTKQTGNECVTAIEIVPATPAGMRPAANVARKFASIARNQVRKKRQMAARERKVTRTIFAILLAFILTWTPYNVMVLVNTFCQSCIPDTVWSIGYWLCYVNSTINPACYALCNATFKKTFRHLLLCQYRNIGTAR

[11] = target: Prostaglandin E2 receptor EP2 subtype (Homo sapiens) (UniProt P43116); assay: Displacement of [3H]PGE2 from human recombinant EP2 receptor expressed in HEK293 cells at 10 uM after 120 mins by scintillation counting; type: cell-based
Prostaglandin E2 receptor EP2 subtype (Homo sapiens), sequence (P43116 whole entry): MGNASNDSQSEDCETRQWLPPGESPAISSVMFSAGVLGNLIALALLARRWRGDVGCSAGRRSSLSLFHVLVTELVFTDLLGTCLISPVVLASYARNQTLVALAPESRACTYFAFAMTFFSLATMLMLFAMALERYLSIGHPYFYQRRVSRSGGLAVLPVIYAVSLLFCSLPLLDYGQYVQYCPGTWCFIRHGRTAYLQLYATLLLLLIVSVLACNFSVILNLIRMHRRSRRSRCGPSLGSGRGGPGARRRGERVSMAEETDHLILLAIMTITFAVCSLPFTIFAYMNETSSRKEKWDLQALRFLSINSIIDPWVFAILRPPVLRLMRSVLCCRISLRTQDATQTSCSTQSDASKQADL

Rattus norvegicus [12] = organism: Rattus norvegicus; assay: Displacement of [35S]dATPaS from P2Y receptor in rat cerebral cortex at 10 uM after 60 mins by scintillation counting; type: tissue-based
[13] = target: 5-hydroxytryptamine receptor 1A (Homo sapiens) (UniProt P08908); assay: Displacement of [3H]8-OH-DPAT from human recombinant 5HT1A receptor expressed in HEK293 cells at 10 uM after 60 mins by scintillation counting; type: cell-based
[14] = target: 5-hydroxytryptamine receptor 1B (Rattus norvegicus) (UniProt P28564); assay: Displacement of [125I]CYP from 5HT1B receptor in rat cerebral cortex at 10 uM after 120 mins by scintillation counting in presence of 30 uM isoproterenol; type: tissue-based
5-hydroxytryptamine receptor 1B (Rattus norvegicus), sequence (P28564 whole entry): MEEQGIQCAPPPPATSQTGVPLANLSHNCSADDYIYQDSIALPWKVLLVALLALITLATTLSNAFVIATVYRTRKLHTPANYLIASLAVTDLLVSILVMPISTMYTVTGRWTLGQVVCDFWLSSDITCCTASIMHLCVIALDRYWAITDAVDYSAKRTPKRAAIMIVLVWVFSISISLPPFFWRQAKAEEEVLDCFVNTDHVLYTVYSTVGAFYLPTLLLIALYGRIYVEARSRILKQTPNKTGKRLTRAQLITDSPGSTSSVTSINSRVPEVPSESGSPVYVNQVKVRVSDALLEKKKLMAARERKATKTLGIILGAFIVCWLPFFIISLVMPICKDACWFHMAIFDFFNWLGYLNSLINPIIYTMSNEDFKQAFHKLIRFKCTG

[15] = target: 5-hydroxytryptamine receptor 2C (Homo sapiens) (UniProt P28335); assay: Displacement of [3H]mesulergine from human recombinant 5HT2C receptor expressed in HEK293 cells at 10 uM after 120 mins by scintillation counting; type: cell-based
[16] = target: 5-hydroxytryptamine receptor 3A (Homo sapiens) (UniProt P46098); assay: Displacement of [3H]BRL43694 from human recombinant 5HT3 receptor expressed in CHO cells at 10 uM after 120 mins by scintillation counting; type: cell-based
5-hydroxytryptamine receptor 3A (Homo sapiens), sequence (P46098 whole entry): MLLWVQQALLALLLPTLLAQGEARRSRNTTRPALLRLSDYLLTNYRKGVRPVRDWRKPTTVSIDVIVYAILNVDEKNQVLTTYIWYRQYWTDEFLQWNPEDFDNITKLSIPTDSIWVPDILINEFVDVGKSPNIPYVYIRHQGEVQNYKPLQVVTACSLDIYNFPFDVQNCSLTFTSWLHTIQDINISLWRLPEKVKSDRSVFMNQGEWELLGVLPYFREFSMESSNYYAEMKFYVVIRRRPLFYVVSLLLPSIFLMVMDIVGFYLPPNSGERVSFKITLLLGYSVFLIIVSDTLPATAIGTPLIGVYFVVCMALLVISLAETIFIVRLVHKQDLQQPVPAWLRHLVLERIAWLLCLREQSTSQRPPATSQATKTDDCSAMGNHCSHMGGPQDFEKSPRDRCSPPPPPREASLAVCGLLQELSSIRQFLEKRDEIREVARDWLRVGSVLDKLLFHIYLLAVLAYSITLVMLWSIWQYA

[17] = target: Type-1 angiotensin II receptor (Homo sapiens) (UniProt P30556); assay: Displacement of [125I][Sar1,Ile8]-AT-2 from human recombinant AT1 receptor expressed in HEK293 cells at 10 uM after 120 mins by scintillation counting; type: cell-based
[18] = target: Cholecystokinin receptor type A (Homo sapiens) (UniProt P32238); assay: Displacement of [125I]CCK-8s from human recombinant CCK1 receptor expressed in CHO cells at 10 uM after 60 mins by scintillation counting; type: cell-based
[19] = target: Vasopressin V1a receptor (Homo sapiens) (UniProt P37288); assay: Displacement of [3H]AVP from human recombinant vasopressin V1a receptor expressed in CHO cells at 10 uM after 60 mins by scintillation counting; type: cell-based
[20] = target: Glucocorticoid receptor (Homo sapiens) (UniProt P04150); assay: Displacement of [3H]dexamethasone from glucocorticoid receptor in human IM9 cells at 10 uM after 6 hrs by scintillation counting; type: cell-based; details: IM-9
Rattus norvegicus [21] = organism: Rattus norvegicus; assay: Displacement of [125I]a-dendrotoxin from potassium channel in rat cerebral cortex at 10 uM after 60 mins by scintillation counting; type: tissue-based
[22] = target: Sodium-dependent serotonin transporter (Homo sapiens) (UniProt P31645); assay: Displacement of [3H]imipramine from human recombinant SERT expressed in CHO cells at 10 uM after 60 mins by scintillation counting; type: cell-based
[23] = target: Thromboxane A2 receptor (Homo sapiens) (UniProt P21731); assay: Displacement of [3H]SQ29548 from human recombinant TP receptor expressed in HEK293 cells at 10 uM after 60 mins by scintillation counting; type: cell-based
Thromboxane A2 receptor (Homo sapiens), sequence (P21731 whole entry): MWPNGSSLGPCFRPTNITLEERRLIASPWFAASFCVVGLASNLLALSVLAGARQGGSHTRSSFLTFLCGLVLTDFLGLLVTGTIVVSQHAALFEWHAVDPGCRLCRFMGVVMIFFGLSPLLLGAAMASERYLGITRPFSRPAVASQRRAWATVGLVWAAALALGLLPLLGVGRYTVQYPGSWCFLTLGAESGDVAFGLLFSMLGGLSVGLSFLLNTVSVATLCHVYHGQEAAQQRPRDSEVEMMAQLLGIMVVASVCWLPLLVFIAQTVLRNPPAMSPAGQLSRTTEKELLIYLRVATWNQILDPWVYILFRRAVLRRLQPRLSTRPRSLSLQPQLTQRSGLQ

[24] = Protein binding in rat plasma; type: ADME, cell-free; details: read-out: PPB (converted)
[25] = Metabolic stability in rat liver microsomes; type: ADME, Microsome; details: read-out: Stability
[26] = Metabolic stability in human liver microsomes; type: ADME, Microsome; details: read-out: Stability
[27] = Oral bioavailability in rat; type: ADME, organism-based; details: in vivo
P2X purinoceptor 5 = P2X purinoceptor 5 (Homo sapiens, UniProt Q93086); assay: Antagonist activity at P2X5 receptor; type: functional
P2X purinoceptor 6 = P2X purinoceptor 6 (Homo sapiens, UniProt O15547); assay: Antagonist activity at P2X6 receptor; type: functional
P2X purinoceptor 6, sequence (O15547 whole entry): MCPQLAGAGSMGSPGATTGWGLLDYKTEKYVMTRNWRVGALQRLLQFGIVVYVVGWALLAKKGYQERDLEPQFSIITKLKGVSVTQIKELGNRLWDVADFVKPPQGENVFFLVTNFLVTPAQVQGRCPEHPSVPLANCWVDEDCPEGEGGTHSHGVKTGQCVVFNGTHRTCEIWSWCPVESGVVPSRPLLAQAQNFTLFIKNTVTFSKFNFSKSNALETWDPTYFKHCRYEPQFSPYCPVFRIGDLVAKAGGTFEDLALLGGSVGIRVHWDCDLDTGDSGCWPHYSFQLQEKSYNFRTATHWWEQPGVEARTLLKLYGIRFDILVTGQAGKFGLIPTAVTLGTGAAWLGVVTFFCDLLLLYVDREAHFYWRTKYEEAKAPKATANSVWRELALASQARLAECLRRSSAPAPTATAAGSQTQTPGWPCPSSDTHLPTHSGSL

P2X purinoceptor 7 = P2X purinoceptor 7 (Homo sapiens, UniProt Q99572); assay: Antagonist activity at P2X7 receptor; type: functional
P2X purinoceptor 7, sequence (Q99572 whole entry): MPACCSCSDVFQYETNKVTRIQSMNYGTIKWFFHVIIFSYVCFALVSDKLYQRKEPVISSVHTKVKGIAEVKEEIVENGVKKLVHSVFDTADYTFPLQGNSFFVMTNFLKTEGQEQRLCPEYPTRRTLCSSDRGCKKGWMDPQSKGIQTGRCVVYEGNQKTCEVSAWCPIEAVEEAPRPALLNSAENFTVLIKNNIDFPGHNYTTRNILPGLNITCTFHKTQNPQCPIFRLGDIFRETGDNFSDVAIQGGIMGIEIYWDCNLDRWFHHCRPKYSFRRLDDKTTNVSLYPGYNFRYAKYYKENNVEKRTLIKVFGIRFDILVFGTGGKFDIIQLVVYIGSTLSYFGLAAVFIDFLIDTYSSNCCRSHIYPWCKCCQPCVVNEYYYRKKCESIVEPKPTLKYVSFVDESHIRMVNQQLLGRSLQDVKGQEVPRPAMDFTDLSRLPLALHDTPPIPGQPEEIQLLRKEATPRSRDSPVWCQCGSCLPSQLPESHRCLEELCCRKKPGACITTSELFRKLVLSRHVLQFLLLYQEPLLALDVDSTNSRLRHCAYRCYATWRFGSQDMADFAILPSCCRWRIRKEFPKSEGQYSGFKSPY

Hepatocyte = assay: Metabolic stability in rat hepatocytes; type: ADME, cell-based
[28] = target: Galanin receptor type 1 (Homo sapiens) (UniProt P47211); assay: Displacement of [125I]galanin from human recombinant GAL1 receptor expressed in HEK293 cells at 10 uM after 60 mins by scintillation counting; type: cell-based
Galanin receptor type 1 (Homo sapiens), sequence (P47211 whole entry): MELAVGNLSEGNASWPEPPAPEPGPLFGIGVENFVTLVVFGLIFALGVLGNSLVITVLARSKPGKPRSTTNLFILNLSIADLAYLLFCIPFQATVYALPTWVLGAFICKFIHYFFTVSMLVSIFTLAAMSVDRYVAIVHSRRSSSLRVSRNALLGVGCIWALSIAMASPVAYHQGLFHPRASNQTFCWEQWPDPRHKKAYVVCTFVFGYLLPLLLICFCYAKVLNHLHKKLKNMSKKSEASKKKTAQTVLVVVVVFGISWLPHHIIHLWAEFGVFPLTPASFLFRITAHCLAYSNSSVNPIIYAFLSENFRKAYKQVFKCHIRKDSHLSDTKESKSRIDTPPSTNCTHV

[29] = target: Substance-K receptor (Homo sapiens) (UniProt P21452); assay: Displacement of [125I]NKA from human recombinant NK2 receptor expressed in CHO cells at 10 uM after 60 mins by scintillation counting; type: cell-based
[30] = target: Neuropeptide Y receptor type 2 (Homo sapiens) (UniProt P49146); assay: Displacement of [125I]peptideYY from neuropeptide Y2 receptor in human KAN-TS cells at 10 uM after 60 mins by scintillation counting; type: cell-based
[31] = target: Neurotensin receptor type 1 (Homo sapiens) (UniProt P30989); assay: Displacement of [125I]Tyr3-neurotensin from human recombinant NTS1 receptor expressed in CHO cells at 10 uM after 60 mins by scintillation counting; type: cell-based
[32] = target: Mu-type opioid receptor (Homo sapiens) (UniProt P35372); assay: Displacement of [3H]DAMGO from human recombinant mu opioid receptor expressed in HEK293 cells at 10 uM after 120 mins by scintillation counting; type: cell-based

CC(=O)N1CCN(C[C@@H](C)NC(=O)c2cc3c(-c4ccccc4)nn(C)c3s2)CC1
Activity [1]: > 50% | Activity [2]: > 50% | Activity [3]: > 50% | Activity (Rattus norvegicus [4]): > 50% | Activity (Rattus norvegicus [5]): > 50% | Activity [6]: > 50% | Activity [7]: > 50% | Activity [8]: > 50% | Activity [9]: > 50% | Activity [10]: > 50% | Activity [11]: > 50% | Activity (Rattus norvegicus [12]): > 50% | Activity [13]: > 50% | Activity [14]: > 50% | Activity [15]: > 50% | Activity [16]: > 50% | Activity [17]: > 50% | Activity [18]: > 50% | Activity [19]: > 50% | Activity [20]: > 50% | Activity (Rattus norvegicus [21]): > 50% | Activity [22]: > 50% | Activity [23]: > 50% | fraction unbound [24]: 0.11 | microsomal CLint [25]: 43.7 µL/min/mg | microsomal CLint [26]: 1.7 µL/min/mg | bioavailability [27]: 89% | IC50 (P2X purinoceptor 5): > 10 µM | IC50 (P2X purinoceptor 6): > 10 µM | IC50 (P2X purinoceptor 7): > 10 µM | Stability (Hepatocyte): 3.93 µL/min/mg | Activity [28]: > 50% | Activity [29]: > 50% | Activity [30]: > 50% | Activity [31]: > 50% | Activity [32]: > 50%
